Measurements as given in the NIST ThermoML archive (doi:10.1016/j.fluid.2006.09.001).
Values joined by “and” are separate entries in the source; they are usually repeats but may differ in a detail not shown here. Identical values can stand only once.

Details: Liquid, Transpiration method

COCCOCCOc1ccccc1Br [1-bromo-2-(2-(2-methoxyethoxy)ethoxy)benzene]
Details | vapor or sublimation pressure
310.4 K | 9e-05 kPa
313.2 K | 0.00012 kPa
317.4 K | 0.00016 kPa
318.6 K | 0.00019 kPa
320.3 K | 0.00021 kPa
322.6 K | 0.00026 kPa
324.3 K | 0.0003 kPa
325.4 K | 0.00036 kPa
327.6 K | 0.00043 kPa
327.7 K | 0.00043 kPa
328.3 K | 0.00047 kPa and 0.00045 kPa
329 K | 0.00045 kPa
332.4 K | 0.00063 kPa
332.5 K | 0.00062 kPa
332.7 K | 0.00063 kPa
334.5 K | 0.00076 kPa
335.4 K | 0.00081 kPa
337.9 K | 0.00096 kPa
339.1 K | 0.00113 kPa
342 K | 0.00135 kPa
343.5 K | 0.00153 kPa
345 K | 0.00167 kPa
346.5 K | 0.00205 kPa
347.6 K | 0.00219 kPa
348 K | 0.0022 kPa
349.5 K | 0.00252 kPa
350.1 K | 0.00253 kPa
350.6 K | 0.0028 kPa
353 K | 0.00325 kPa
355.1 K | 0.00383 kPa
356 K | 0.0041 kPa
359.2 K | 0.0052 kPa
360.3 K | 0.00566 kPa
361.1 K | 0.00611 kPa
363.3 K | 0.007 kPa
365.2 K | 0.00835 kPa
368.4 K | 0.01027 kPa and 0.01025 kPa
370.8 K | 0.01177 kPa
373.5 K | 0.01407 kPa

COCCOc1ccccc1Br [1-bromo-2-(2-methoxyethoxy)benzene]
Details | vapor or sublimation pressure
302.4 K | 0.0011 kPa
307.4 K | 0.00174 kPa
312.4 K | 0.00268 kPa
315 K | 0.00321 kPa
317.5 K | 0.00391 kPa
319.5 K | 0.00453 kPa and 0.00475 kPa
322.6 K | 0.0062 kPa
324.6 K | 0.00691 kPa
327.6 K | 0.00867 kPa
332.7 K | 0.01255 kPa
337.8 K | 0.01854 kPa
343 K | 0.02628 kPa
348.1 K | 0.03518 kPa
353.2 K | 0.04763 kPa
356.3 K | 0.05583 kPa
358.2 K | 0.06719 kPa
360.7 K | 0.07401 kPa
361.8 K | 0.07914 kPa
363.3 K | 0.08516 kPa
366.8 K | 0.1095 kPa
368.4 K | 0.1199 kPa

COCCOCCOCCOc1ccccc1Br [1-bromo-2-(2-(2-(2-methoxyethoxy)ethoxy)ethoxy)benzene]
Details | vapor or sublimation pressure [kPa]
333.2 K | 6.1e-05
337.3 K | 8.8e-05
339.3 K | 0.000111
341.3 K | 0.000132
343.4 K | 0.000158
345.5 K | 0.000188
347.5 K | 0.000218
349.7 K | 0.000272
351.7 K | 0.000329
353.6 K | 0.000382
355.7 K | 0.000446
357.8 K | 0.000555
359.8 K | 0.000649
360.6 K | 0.000704
362 K | 0.000796
363 K | 0.000826
365 K | 0.000993
367.9 K | 0.001244
369.9 K | 0.001446
